Measurements from the kinase profiling compilation of Christmann-Franck et al. (2016).

Experiments:
Test in all cases: KINOMEscan competition binding
Conditions in all cases: compound 1.0 µM
NUAK1 (human) = NUAK1 (human) (UniProt O60285)
TESK1 (human) = TESK1 (human) (UniProt Q15569)
PIP4K2B (human) = PIP4K2B (human) (UniProt P78356)
GRK4 (human) = GRK4 (human) (UniProt P32298)
CPK1 (P.falciparum) = tested on: CPK1 (P.falciparum)
AKT2 (human) = AKT2 (human) (UniProt P31751)
LATS1 (human) = LATS1 (human) (UniProt O95835)
KDR (human) = KDR (human) (UniProt P35968)
MAPK1 (human) = MAPK1 (human) (UniProt P28482)
Sequence of MAPK1 (human) (P28482 whole entry, looked up): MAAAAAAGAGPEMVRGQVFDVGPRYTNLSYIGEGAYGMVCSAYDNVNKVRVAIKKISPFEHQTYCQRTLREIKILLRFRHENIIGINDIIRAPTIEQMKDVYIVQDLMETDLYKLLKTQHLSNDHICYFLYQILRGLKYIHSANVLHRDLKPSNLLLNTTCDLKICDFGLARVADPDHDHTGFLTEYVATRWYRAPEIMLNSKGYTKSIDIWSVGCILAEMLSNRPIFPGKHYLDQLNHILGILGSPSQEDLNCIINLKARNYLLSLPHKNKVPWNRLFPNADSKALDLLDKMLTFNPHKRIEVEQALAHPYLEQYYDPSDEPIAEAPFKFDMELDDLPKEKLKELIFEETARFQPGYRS

CSNK1G1 (human) = CSNK1G1 (human) (UniProt Q9HCP0)
Sequence of CSNK1G1 (human) (Q9HCP0 whole entry, looked up): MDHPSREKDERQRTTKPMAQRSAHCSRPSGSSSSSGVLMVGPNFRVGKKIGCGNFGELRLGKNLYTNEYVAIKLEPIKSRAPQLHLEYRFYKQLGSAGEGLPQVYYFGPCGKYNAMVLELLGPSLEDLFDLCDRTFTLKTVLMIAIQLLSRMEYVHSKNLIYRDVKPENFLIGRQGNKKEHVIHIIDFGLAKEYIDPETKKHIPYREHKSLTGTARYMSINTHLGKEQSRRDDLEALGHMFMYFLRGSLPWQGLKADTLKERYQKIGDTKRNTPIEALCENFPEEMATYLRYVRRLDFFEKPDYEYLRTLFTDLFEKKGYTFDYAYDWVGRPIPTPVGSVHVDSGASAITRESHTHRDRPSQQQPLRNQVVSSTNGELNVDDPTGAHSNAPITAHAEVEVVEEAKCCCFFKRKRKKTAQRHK

EPHB2 (human) = EPHB2 (human) (UniProt P29323)
TRPM6 (human) = TRPM6 (human) (UniProt Q9BX84)
MAP3K7 (human) = MAP3K7 (human) (UniProt O43318)
MARK2 (human) = MARK2 (human) (UniProt Q7KZI7)
Sequence of MARK2 (human) (Q7KZI7 whole entry, looked up): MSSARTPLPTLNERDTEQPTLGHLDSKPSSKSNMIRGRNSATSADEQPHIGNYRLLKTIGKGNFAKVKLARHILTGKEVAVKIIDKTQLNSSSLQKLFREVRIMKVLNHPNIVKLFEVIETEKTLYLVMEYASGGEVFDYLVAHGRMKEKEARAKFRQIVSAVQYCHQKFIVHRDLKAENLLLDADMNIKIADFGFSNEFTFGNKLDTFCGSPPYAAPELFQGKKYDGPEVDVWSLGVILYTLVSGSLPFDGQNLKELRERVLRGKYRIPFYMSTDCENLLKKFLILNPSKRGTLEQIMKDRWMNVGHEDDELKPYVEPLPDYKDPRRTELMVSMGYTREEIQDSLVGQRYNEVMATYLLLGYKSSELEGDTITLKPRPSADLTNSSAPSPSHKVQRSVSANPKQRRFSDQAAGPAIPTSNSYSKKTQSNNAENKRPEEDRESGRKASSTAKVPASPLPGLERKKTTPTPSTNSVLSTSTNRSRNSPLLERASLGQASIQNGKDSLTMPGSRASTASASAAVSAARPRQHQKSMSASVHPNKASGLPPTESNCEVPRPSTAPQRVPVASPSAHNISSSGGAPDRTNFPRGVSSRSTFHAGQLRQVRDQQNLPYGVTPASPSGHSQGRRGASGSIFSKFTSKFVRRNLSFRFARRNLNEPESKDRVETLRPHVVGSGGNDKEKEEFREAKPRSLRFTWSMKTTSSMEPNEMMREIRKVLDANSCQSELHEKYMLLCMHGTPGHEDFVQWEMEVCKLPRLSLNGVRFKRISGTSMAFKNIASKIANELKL

[1] = tested on: PIK3CA (human), P42336 [E545K]
EPHA7 (human) = EPHA7 (human) (UniProt Q15375)
ERN1 (human) = ERN1 (human) (UniProt O75460)
MAST1 (human) = MAST1 (human) (UniProt Q9Y2H9)
MAP3K12 (human) = MAP3K12 (human) (UniProt Q12852)
WEE1 (human) = WEE1 (human) (UniProt P30291)
ULK3 (human) = ULK3 (human) (UniProt Q6PHR2)
HUNK (human) = HUNK (human) (UniProt P57058)
CRK2 (P.falciparum) = CRK2 (P.falciparum) (UniProt P61075)
Sequence of CRK2 (P.falciparum) (P61075 whole entry, looked up): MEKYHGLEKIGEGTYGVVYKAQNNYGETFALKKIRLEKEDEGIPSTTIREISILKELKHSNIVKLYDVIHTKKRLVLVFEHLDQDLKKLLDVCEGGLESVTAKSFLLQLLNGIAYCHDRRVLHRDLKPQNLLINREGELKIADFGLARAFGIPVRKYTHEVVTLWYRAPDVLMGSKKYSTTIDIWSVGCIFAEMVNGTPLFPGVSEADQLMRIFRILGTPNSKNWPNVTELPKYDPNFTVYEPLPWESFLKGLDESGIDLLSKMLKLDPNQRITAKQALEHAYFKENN

[2] = tested on: KIT (human), P10721 [V559D/V654A]
PIK3CD (human) = PIK3CD (human) (UniProt O00329)
Sequence of PIK3CD (human) (O00329 whole entry, looked up): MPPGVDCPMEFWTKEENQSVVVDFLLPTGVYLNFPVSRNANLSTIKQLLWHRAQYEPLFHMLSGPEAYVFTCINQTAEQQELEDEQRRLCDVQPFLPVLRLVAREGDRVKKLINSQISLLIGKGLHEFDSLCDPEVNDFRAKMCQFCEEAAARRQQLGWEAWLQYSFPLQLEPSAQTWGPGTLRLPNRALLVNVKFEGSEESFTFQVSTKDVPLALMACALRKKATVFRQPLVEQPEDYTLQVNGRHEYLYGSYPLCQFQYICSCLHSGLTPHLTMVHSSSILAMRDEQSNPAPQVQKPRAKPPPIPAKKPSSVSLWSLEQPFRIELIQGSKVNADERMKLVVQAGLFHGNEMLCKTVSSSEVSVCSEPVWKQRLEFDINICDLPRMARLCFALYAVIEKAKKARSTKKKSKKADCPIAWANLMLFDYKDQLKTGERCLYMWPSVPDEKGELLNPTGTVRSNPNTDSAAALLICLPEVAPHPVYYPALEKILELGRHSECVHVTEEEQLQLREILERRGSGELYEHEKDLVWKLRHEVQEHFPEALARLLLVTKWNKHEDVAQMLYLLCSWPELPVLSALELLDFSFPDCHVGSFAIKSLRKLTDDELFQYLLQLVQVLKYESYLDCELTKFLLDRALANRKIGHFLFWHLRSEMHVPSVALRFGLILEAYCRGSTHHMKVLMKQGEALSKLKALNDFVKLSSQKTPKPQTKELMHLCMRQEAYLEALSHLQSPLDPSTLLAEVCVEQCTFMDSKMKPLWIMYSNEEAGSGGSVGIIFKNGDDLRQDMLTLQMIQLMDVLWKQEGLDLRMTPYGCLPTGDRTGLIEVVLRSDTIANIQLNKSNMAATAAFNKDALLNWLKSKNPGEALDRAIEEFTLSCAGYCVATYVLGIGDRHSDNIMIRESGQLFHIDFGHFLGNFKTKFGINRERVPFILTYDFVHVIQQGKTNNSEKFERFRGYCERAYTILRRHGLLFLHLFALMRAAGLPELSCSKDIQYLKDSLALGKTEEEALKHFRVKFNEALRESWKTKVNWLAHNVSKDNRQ

GAK (human) = GAK (human) (UniProt O14976)
Sequence of GAK (human) (O14976 whole entry, looked up): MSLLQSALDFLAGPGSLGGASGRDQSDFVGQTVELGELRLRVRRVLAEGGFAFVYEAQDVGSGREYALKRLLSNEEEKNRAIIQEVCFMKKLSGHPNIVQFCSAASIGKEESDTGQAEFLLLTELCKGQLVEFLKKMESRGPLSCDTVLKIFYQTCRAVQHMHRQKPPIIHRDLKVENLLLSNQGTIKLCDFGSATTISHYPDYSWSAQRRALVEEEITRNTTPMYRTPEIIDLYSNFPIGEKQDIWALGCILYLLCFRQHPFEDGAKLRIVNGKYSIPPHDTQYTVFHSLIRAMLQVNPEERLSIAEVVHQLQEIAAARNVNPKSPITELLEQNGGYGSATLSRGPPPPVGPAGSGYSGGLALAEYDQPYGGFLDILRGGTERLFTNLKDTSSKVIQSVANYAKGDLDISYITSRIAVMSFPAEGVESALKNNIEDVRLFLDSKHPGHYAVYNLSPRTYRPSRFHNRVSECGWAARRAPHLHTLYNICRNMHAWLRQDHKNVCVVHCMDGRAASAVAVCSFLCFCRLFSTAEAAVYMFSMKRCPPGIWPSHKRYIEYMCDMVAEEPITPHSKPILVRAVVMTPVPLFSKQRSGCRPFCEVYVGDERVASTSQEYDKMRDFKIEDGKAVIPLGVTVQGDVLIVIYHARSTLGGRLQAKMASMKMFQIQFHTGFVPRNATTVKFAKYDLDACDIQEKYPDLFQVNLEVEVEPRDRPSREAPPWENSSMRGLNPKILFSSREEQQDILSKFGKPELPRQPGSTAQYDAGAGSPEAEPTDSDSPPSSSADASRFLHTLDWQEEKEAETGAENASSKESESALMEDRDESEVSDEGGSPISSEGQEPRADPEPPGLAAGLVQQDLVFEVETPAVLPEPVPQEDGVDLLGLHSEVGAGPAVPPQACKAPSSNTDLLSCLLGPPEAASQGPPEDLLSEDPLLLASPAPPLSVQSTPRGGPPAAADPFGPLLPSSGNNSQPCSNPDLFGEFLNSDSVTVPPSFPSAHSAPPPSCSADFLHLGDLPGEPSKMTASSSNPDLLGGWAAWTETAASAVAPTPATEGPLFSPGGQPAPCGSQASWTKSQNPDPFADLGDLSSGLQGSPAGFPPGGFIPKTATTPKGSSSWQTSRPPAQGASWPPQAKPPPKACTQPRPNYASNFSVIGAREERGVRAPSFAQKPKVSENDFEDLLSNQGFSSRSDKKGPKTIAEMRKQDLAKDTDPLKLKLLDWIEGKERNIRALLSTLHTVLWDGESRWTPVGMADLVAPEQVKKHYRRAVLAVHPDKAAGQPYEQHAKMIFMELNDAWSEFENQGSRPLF

RPS6KA3 KD1 (human) = RPS6KA3 KD1 (human) (UniProt P51812)
Sequence of RPS6KA3 KD1 (human) (P51812 whole entry, looked up): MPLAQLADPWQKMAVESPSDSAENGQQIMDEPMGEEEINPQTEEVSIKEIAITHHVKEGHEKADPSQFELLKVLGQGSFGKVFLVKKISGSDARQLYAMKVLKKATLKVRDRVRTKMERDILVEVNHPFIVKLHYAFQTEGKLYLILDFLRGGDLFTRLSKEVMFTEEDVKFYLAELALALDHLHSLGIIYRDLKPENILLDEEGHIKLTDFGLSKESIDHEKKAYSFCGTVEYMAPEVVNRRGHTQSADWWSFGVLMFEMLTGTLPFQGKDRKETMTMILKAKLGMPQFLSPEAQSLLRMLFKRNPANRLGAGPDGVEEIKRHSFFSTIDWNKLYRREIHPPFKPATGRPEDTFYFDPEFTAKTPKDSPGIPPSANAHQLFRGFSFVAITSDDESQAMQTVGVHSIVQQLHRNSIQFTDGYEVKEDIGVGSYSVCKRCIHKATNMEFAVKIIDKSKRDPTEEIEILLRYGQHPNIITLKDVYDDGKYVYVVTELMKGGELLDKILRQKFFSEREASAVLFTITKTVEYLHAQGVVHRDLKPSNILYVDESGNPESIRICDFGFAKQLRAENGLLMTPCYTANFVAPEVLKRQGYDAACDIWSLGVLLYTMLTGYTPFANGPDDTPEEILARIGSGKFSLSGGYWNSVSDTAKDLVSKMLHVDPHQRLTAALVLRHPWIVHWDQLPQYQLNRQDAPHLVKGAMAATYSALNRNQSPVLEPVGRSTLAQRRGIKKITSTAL

NEK1 (human) = NEK1 (human) (UniProt Q96PY6)
TNK2 (human) = TNK2 (human) (UniProt Q07912)
GRK1 (human) = GRK1 (human) (UniProt Q15835)
MKNK2 (human) = MKNK2 (human) (UniProt Q9HBH9)
STK3 (human) = STK3 (human) (UniProt Q13188)
[3] = tested on: PIK3CA (human), P42336 [E545A]
HIPK2 (human) = HIPK2 (human) (UniProt Q9H2X6)
EPHA5 (human) = EPHA5 (human) (UniProt P54756)
[4] = tested on: FLT3 (human), P36888 [ITD]
NEK11 (human) = NEK11 (human) (UniProt Q8NG66)
HIPK4 (human) = HIPK4 (human) (UniProt Q8NE63)
PIK3C2B (human) = PIK3C2B (human) (UniProt O00750)

## CNc1nc(Nc2ccc(C(=O)N3CCOCC3)cc2OC)ncc1Cl
NUAK1 (human)
  kinase still bound, per cent of control: 82%
TESK1 (human)
  kinase still bound, per cent of control: 100%
PIP4K2B (human)
  kinase still bound, per cent of control: 83%
GRK4 (human)
  kinase still bound, per cent of control: 75%
CPK1 (P.falciparum)
  kinase still bound, per cent of control: 78%
AKT2 (human)
  kinase still bound, per cent of control: 100%
LATS1 (human)
  kinase still bound, per cent of control: 100%
KDR (human)
  kinase still bound, per cent of control: 87%
MAPK1 (human)
  kinase still bound, per cent of control: 100%
CSNK1G1 (human)
  kinase still bound, per cent of control: 55%
EPHB2 (human)
  kinase still bound, per cent of control: 100%
TRPM6 (human)
  kinase still bound, per cent of control: 87%
MAP3K7 (human)
  kinase still bound, per cent of control: 79%
MARK2 (human)
  kinase still bound, per cent of control: 100%
[1]
  kinase still bound, per cent of control: 100%
EPHA7 (human)
  kinase still bound, per cent of control: 100%
ERN1 (human)
  kinase still bound, per cent of control: 88%
MAST1 (human)
  kinase still bound, per cent of control: 93%
MAP3K12 (human)
  residual activity: 100%
WEE1 (human)
  kinase still bound, per cent of control: 78%
ULK3 (human)
  kinase still bound, per cent of control: 83%
HUNK (human)
  kinase still bound, per cent of control: 98%
CRK2 (P.falciparum)
  kinase still bound, per cent of control: 100%
[2]
  kinase still bound, per cent of control: 100%
PIK3CD (human)
  kinase still bound, per cent of control: 69%
GAK (human)
  kinase still bound, per cent of control: 25%
RPS6KA3 KD1 (human)
  kinase still bound, per cent of control: 100%
NEK1 (human)
  kinase still bound, per cent of control: 91%
TNK2 (human)
  kinase still bound, per cent of control: 78%
GRK1 (human)
  kinase still bound, per cent of control: 100%
MKNK2 (human)
  kinase still bound, per cent of control: 14%
STK3 (human)
  kinase still bound, per cent of control: 76%
[3]
  kinase still bound, per cent of control: 68%
HIPK2 (human)
  kinase still bound, per cent of control: 100%
EPHA5 (human)
  kinase still bound, per cent of control: 100%
[4]
  kinase still bound, per cent of control: 87%
NEK11 (human)
  kinase still bound, per cent of control: 100%
HIPK4 (human)
  kinase still bound, per cent of control: 100%
PIK3C2B (human)
  kinase still bound, per cent of control: 96%
